Experiment [1] deals with T1, K241A KDM4A (Homo sapiens, UniProt O75164, K241A).
T1 construct: two recombinant variants of KDM4A (residues 1–359) in Escherichia coli BL21(DE3) cells; His6 (N); made in house; host or cells: Escherichia coli BL21(DE3)
T1 sequence (O75164 1-359 K241A): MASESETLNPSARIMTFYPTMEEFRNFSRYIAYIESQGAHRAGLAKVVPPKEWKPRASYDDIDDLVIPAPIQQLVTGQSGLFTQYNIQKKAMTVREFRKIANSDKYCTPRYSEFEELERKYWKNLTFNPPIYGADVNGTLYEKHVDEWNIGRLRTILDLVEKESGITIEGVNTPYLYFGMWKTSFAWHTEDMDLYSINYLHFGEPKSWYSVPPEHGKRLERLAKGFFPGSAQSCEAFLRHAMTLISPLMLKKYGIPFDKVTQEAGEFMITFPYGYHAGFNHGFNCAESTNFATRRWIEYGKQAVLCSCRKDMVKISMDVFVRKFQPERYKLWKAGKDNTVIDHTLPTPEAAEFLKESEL
Briefly: 1H NMR inhibition assay of uncoupled 2OG turnover, K241A KDM4A. It is filed as biochemical. The note with it: K241A KDM4A 20.5 μM; inhibitor 100 μM; 2OG 2 mM; spectra after 35 min; pH 7.5.
Experimental: (§1) Samples containing either WT or K241A (20.5 μM), an excess of 2OG (2 mM), ascorbate (1 mM), and ferrous iron (100 μM) in ammonium formate buffer (50 mM, pH 7.5) were subjected to ^1H NMR analysis at 1.5 min intervals over a 30‐min reaction. […] Experiments were then conducted in the presence of a histone H3 eight‐residue fragment peptide containing N ^ϵ‐trimethyllysine at position 9 (H3K9me3, sequence: ARKme3STGGK).
(§2) 1H NMR activity and inhibition assays: 20.5 µM KDM4A WT or KDM4A K241A was
(§3) mixed with 2 mM 2OG, 1 mM sodium L-ascorbate, and 100 µM ferrous iron (source
(§4) (NH4)2FeSO4.6H2O), in 50 mM ammonium formate buffer pH 7.5 10 % v/v D2O in an Ep-
(§5) pendorf tube, before being immediately transferred to an NMR tube and subjected to 1H NMR
(§6) analysis (700 MHz). For samples containing peptide substrate (sequence: ARKme3STGGK),
(§7) the peptide concentration was 300 µM. For inhibition assays, samples contained 100 µM in-
(§8) hibitor (JIB-04 or NOG) and the spectra were acquired after 35 min. Note: residual protein
(§9) buffer was also present. NMR analyses were carried out on a Bruker AVIII 700 spectrometer
(§10) equipped with an inverse TCI 1H/13C/15N cryoprobe and running TOPSPIN 3.2 software. The
(§11) deuterium signal was used as an internal lock signal and 1H chemical shifts are reported in
(§12) ppm relative to the solvent HDO resonance (δH 4.7 ppm).

The target of experiment [2] is T2, WT KDM4A (Homo sapiens, UniProt O75164).
T2 sequence (O75164 1-359): T1 sequence (O75164 1-359 K241A) with A241K
Briefly: 1H NMR inhibition assay of uncoupled 2OG turnover, WT KDM4A. It is filed as biochemical. On the set-up: two recombinant variants of KDM4A (residues 1–359) in Escherichia coli BL21(DE3) cells; His6 (N); made in house; host or cells: Escherichia coli BL21(DE3). The note with it: WT KDM4A 20.5 μM; inhibitor 100 μM; 2OG 2 mM; spectra after 35 min; pH 7.5.
Experimental: as §1, §2, §3, §4, §5, §6, §7, §8, §9, §10, §11, §12

Experiment [3] concerns the target T1, K241A KDM4A. Put plainly: MALDI-TOF MS demethylation assay, K241A KDM4A. It is filed as biochemical. The note with it: K241A KDM4A 1 μM, peptide 100 μM, 2OG 100 μM, ascorbate 100 μM, Fe(II) 10 μM, 50 mM HEPES pH 7.5, 40 min, 37 °C.
Experimental: Initially, we produced two recombinant variants of KDM4A (residues 1–359) in Escherichia coli BL21(DE3) cells; a truncated wild‐type sequence (KDM4A WT), or a variant with an alanine in place of Lys241 (K241A KDM4A). Studies were then carried out to evaluate the ability of the two KDM4A proteins to catalyse the demethylation of a histone peptide substrate.
MALDI-TOF MS activity assays: 1 µM WT KDM4A or KDM4A K241A was incubated
with 100 µM disodium 2-oxoglutarate (2OG), 100 µM sodium L-ascorbate, 10 µM ferrous iron
(source (NH4)2FeSO4.6H2O) and 100 µM of 15-residue H3 fragment peptide containing the
requisite trimethyllysine mark (Table S1) in 50 mM HEPES buffer pH 7.5 for 40 min at 37 °C.
Assays were quenched with an equal vol-
ume of methanol, and the extent of the reaction determined using MALDI-TOF mass spec-
trometry (MS). Data were analysed using MASSLYNX 4.0 (Waters).
In experiment [4] the target is T1, K241A KDM4A. Briefly: 1H NMR succinate formation in presence of H3 eight-residue peptide, K241A KDM4A. It is filed as biochemical. The note with it: K241A KDM4A 20.5 μM; peptide 300 µM; 2OG 2 mM; pH 7.5.
Experimental: as §1, §2, §3, §4, §5, §6, §7, §8, §9, §10, §11, §12
Experiment [5] concerns the target T2, WT KDM4A. Put plainly: 1H NMR succinate formation in presence of H3 eight-residue peptide, WT KDM4A. It is filed as biochemical. On the set-up: two recombinant variants of KDM4A (residues 1–359) in Escherichia coli BL21(DE3) cells; His6 (N); made in house; host or cells: Escherichia coli BL21(DE3). The note with it: peptide 300 µM.
Experimental: as §1, §2, §3, §4, §5, §6, §7, §8, §9, §10, §11, §12
The target in experiment [6] is T1, K241A KDM4A. Put plainly: 1H CPMG NMR binding assay, K241A KDM4A. The note with it: for binding to K241A versus WT KDM4A: CPMG NMR, K241A compared with WT.
Experimental: as §1
(§13) NMR analyses were carried out on a Bruker AVIII 700 spectrometer
as §10, §11, §12
(§14) 1H CPMG NMR binding assays: Typical experimental parameters for Carr-Purcell-Mei-
(§15) boom-Gill (CPMG) NMR spectroscopy were as follows: total echo time, 40 ms; relaxation
(§16) delay, 2 s; and number of transients, 264. The PROJECT-CPMG sequence was applied
(§17) (90°x−[τ−180°y−τ−90°y−τ−180°y−τ]n−acq).[4] Water suppression was achieved by presatura-
(§18) tion. Protein (KDM4A WT or KDM4A K241A) was titrated into an assay mixture of 40 µM
The target in experiment [7] is T2, WT KDM4A. Briefly: 1H CPMG NMR binding assay, WT KDM4A. The note with it: protein titrated into 40 µM JIB-04, 100 µM Fe(II), 50 mM ammonium formate pH 7.5, 10 % D2O, 600 MHz CPMG, quadratic fit, read-out: K D (JIB-04), provisional. On the set-up: two recombinant variants of KDM4A (residues 1–359) in Escherichia coli BL21(DE3) cells; His6 (N); made in house; host or cells: Escherichia coli BL21(DE3).
Experimental: as §1, §13, §10, §11, §12, §14, §15, §16, §17, §18

Experiment [8] addresses T1, K241A KDM4A. The note with it: mixed-mode inhibition of K241A; cited from earlier work. The source says:
The overall MS, NMR spectroscopy and fluorescence polarisation studies imply that K241 has a role in KDM4A catalysis. […] Succinate formation by the K241A variant is stimulated by a histone fragment peptide, and a fluorescently labelled histone peptide bind ...

In experiment [9] the target is T2, WT KDM4A. The note with it: ref 12b; cited from earlier work.
Experimental: Studies were then carried out to evaluate the ability of the two KDM4A proteins to catalyse the demethylation of a histone peptide substrate.
The target of experiment [10] is T2, WT KDM4A. Briefly: 1H NMR substrate-uncoupled turnover of 2OG to succinate, WT KDM4A. On the set-up: two recombinant variants of KDM4A (residues 1–359) in Escherichia coli BL21(DE3) cells; His6 (N); made in house; host or cells: Escherichia coli BL21(DE3). It is filed as biochemical. The note with it: WT 20.5 μM, 2OG 2 mM, ascorbate 1 mM, Fe(II) 100 μM, 50 mM ammonium formate pH 7.5, no peptide; 1H NMR 700 MHz, 1.5 min intervals over 30 min.
Experimental: Samples containing either WT or K241A (20.5 μM), an excess of 2OG (2 mM), ascorbate (1 mM), and ferrous iron (100 μM) in ammonium formate buffer (50 mM, pH 7.5) were subjected to ^1H NMR analysis at 1.5 min intervals over a 30‐min reaction.
as §2, §3, §4, §5, §9, §10, §11
ppm relative to the solvent HDO resonance (δH 4.7 ppm). The solvent signal was reduced by

Experiment [11] has as its target T1, K241A KDM4A. Briefly: 1H NMR substrate-uncoupled turnover of 2OG to succinate, K241A KDM4A. It is filed as biochemical.
Experimental: as §1, §2, §3, §4, §5, §6, §7, §8, §9, §10, §11, §12

Where a chain is given by its changes, count along the chain named. “Also recorded” adds a separate entry of the source. Square brackets hold non-standard residues; d marks the D form. Ends that are not written are not given here. Lys(Me3) = C[N+](C)(C)CCCC[C@H](N)C(=O)O

`O=C(O)CNC(=O)C(=O)O` [N‐oxalylglycine]: the “inhibition of uncoupled 2OG turnover” value at K241A KDM4A [1] and on WT KDM4A [2] was “inhibited” in each case.

“TPVKKKAR[Lys(Me3)]SAGAAK [H1.4K26 peptide]”: the “demethylation of histone peptide” value on K241A KDM4A [3] is “low‐level demethylation”.

As to “AR[Lys(Me3)]STGGK [histone H3 eight‐residue fragment peptide containing N ϵ‐trimethyllysine at position 9 (also called H3K9me3)]”, the “effect of peptide on succinate formation rate” value is recorded as “markedly increased” on K241A KDM4A [4] and “markedly increased” at WT KDM4A [5] (WT KDM4A 20.5 μM, 2OG 2 mM, pH 7.5). Further, at WT KDM4A [5] (WT compared with K241A), the “stimulation of succinate formation, WT versus K241A” value is reported as “Stimulation of succinate formation was greater for WT than for K241A KDM4A; also recorded: Succinate formation is stimulated by H3K9me3 peptide, but more readily with WT KDM4A”.

In the case of `Clc1ccc(N/N=C(\c2ccccc2)c2ccccn2)nc1` [JIB‐04], the “binding to K241A versus WT KDM4A” value on K241A KDM4A [6] is “preferential binding of JIB‐04 to the K241A variant over the WT enzyme; also recorded: binding to K241A appears stronger”; on K241A KDM4A [6] (listed as JIB-04), “Binding appears stronger to the K241 variant than KDM4A WT”. Moreover, the Kd at K241A KDM4A [6] (K241A KDM4A, protein titrated into 40 µM JIB-04, 100 µM Fe(II), 50 mM ammonium formate pH 7.5, 10 % D2O, 600 MHz CPMG, quadratic fit, read-out: K D (JIB-04), provisional) was 7 ± 2 µM; on WT KDM4A [7], 22 ± 5 µM. The “inhibition of uncoupled 2OG turnover” value on K241A KDM4A [1] and on WT KDM4A [2] was “inhibition was more pronounced” throughout. Further, the mode of inhibition entry on K241A KDM4A [8] is “mixed‐mode inhibition”.

On to `O=C(O)CCC(=O)C(=O)O` [2OG, 2‐oxoglutarate], for which the “K M (2OG)” value on WT KDM4A [9] is 26 ± 7 µM. Besides, the “initial succinate formation rate” value turned out to be 1.35 µM/min at WT KDM4A [10] and 1.55 µM/min on K241A KDM4A [11] (K241A 20.5 μM, 2OG 2 mM, ascorbate 1 mM, Fe(II) 100 μM, 50 mM ammonium formate pH 7.5, no peptide, 1H NMR 700 MHz, 1.5 min intervals over 30 min). In addition, on K241A KDM4A [11] (in the absence of peptide, WT and K241A KDM4A compared), the “succinate formation rates, WT versus K241A” value is “near identical”.

These data come from publication PMC5969224, “Lysine‐241 Has a Role in Coupling 2OG Turnover with Substrate Oxidation During KDM4‐Catalysed Histone Demethylation” (Chembiochem, 2018).
